Results on four compounds are retold here after PubChem BioAssay (NCI).

SMILES strings stand for the structures.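 Five compound concentrations were applied to cells in 96-well plates for 48 hours; endpoints were derived by simple linear interpolation of the resulting dose-response curve. Definition used: TGI = concentration required for complete inhibition of growth.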

For one assay, the system named is HOP-18 NSCLC. As to the kind of experiment: NCI tumour cell line growth inhibition, 48 h.
With `COc1ccc(CNc2nc3ccc(C(F)(F)F)cc3nc2-c2ccccc2)cc1OC`, the TGI is above 100 µM.

The compound `O=C(O/N=C1/CCC/C1=C\c1ccccc1)c1ccc([N+](=O)[O-])cc1` returned a TGI above 100 µM.

As for `C=C1CC(OC)(C(O)C(=O)N[C@H]2OCO[C@H]3C2O[C@H](C[C@@H](COC)OC)C(C)(C)C3OC)O[C@H](C)[C@@H]1C` (stereo partly drawn), the TGI was below 0.00482 µM.

In turn, `CC1CCC[P+](Cc2ccccc2)(c2ccccc2)CC1` (stereo not drawn) had a TGI of 13 µM.

Another assay has as its system HOP-62 NSCLC. As to the kind of experiment: NCI tumour cell line growth inhibition, 48 h.
In turn, `COc1ccc(CNc2nc3ccc(C(F)(F)F)cc3nc2-c2ccccc2)cc1OC` registered a TGI above 100 µM.

`O=C(O/N=C1/CCC/C1=C\c1ccccc1)c1ccc([N+](=O)[O-])cc1` displayed a TGI above 100 µM.

The compound `CC1CCC[P+](Cc2ccccc2)(c2ccccc2)CC1` (stereo not drawn) showed a TGI above 100 µM.

The subject of a further assay is HOP-92 NSCLC. Briefly: NCI tumour cell line growth inhibition, 48 h.
The compound `COc1ccc(CNc2nc3ccc(C(F)(F)F)cc3nc2-c2ccccc2)cc1OC` came in with a TGI of 15.5 µM.

`O=C(O/N=C1/CCC/C1=C\c1ccccc1)c1ccc([N+](=O)[O-])cc1` had a TGI above 100 µM.

The next assay concerns HT29 colon. Briefly: NCI tumour cell line growth inhibition, 48 h.
As for `COc1ccc(CNc2nc3ccc(C(F)(F)F)cc3nc2-c2ccccc2)cc1OC`, the TGI was above 100 µM.

With `O=C(O/N=C1/CCC/C1=C\c1ccccc1)c1ccc([N+](=O)[O-])cc1`, the TGI is above 100 µM.

With `C=C1CC(OC)(C(O)C(=O)N[C@H]2OCO[C@H]3C2O[C@H](C[C@@H](COC)OC)C(C)(C)C3OC)O[C@H](C)[C@@H]1C` (stereo partly drawn), the TGI is below 0.00482 µM.

The test system of another assay is IGROV1 ovarian. Briefly: NCI tumour cell line growth inhibition, 48 h.
As for `O=C(O/N=C1/CCC/C1=C\c1ccccc1)c1ccc([N+](=O)[O-])cc1`, the TGI was above 100 µM.

Consider `C=C1CC(OC)(C(O)C(=O)N[C@H]2OCO[C@H]3C2O[C@H](C[C@@H](COC)OC)C(C)(C)C3OC)O[C@H](C)[C@@H]1C` (stereo partly drawn), for which the TGI is below 0.00482 µM.

For the compound `CC1CCC[P+](Cc2ccccc2)(c2ccccc2)CC1` (stereo not drawn), the TGI is above 100 µM.

The test system of another assay is K-562 leukemia. As to the kind of experiment: NCI tumour cell line growth inhibition, 48 h.
On to `O=C(O/N=C1/CCC/C1=C\c1ccccc1)c1ccc([N+](=O)[O-])cc1`, for which the TGI was above 100 µM.

In turn, `C=C1CC(OC)(C(O)C(=O)N[C@H]2OCO[C@H]3C2O[C@H](C[C@@H](COC)OC)C(C)(C)C3OC)O[C@H](C)[C@@H]1C` (stereo partly drawn) had a TGI below 0.00482 µM.

`CC1CCC[P+](Cc2ccccc2)(c2ccccc2)CC1` (stereo not drawn) registered a TGI above 100 µM.

In another assay the test system is KM12 colon. Briefly: NCI tumour cell line growth inhibition, 48 h.
Consider `O=C(O/N=C1/CCC/C1=C\c1ccccc1)c1ccc([N+](=O)[O-])cc1`, for which the TGI was above 100 µM.

`C=C1CC(OC)(C(O)C(=O)N[C@H]2OCO[C@H]3C2O[C@H](C[C@@H](COC)OC)C(C)(C)C3OC)O[C@H](C)[C@@H]1C` (stereo partly drawn) showed a TGI below 0.00482 µM.

A further assay relates to KM20L2 colon. As to the kind of experiment: NCI tumour cell line growth inhibition, 48 h.
`COc1ccc(CNc2nc3ccc(C(F)(F)F)cc3nc2-c2ccccc2)cc1OC` showed a TGI above 100 µM.

`O=C(O/N=C1/CCC/C1=C\c1ccccc1)c1ccc([N+](=O)[O-])cc1` returned a TGI above 100 µM.

In the case of `C=C1CC(OC)(C(O)C(=O)N[C@H]2OCO[C@H]3C2O[C@H](C[C@@H](COC)OC)C(C)(C)C3OC)O[C@H](C)[C@@H]1C` (stereo partly drawn), the TGI is below 0.00482 µM.

In turn, `CC1CCC[P+](Cc2ccccc2)(c2ccccc2)CC1` (stereo not drawn) returned a TGI above 100 µM.

The next assay relates to LOX IMVI melanoma. Briefly: NCI tumour cell line growth inhibition, 48 h.
For the compound `COc1ccc(CNc2nc3ccc(C(F)(F)F)cc3nc2-c2ccccc2)cc1OC`, the TGI was above 100 µM.

`O=C(O/N=C1/CCC/C1=C\c1ccccc1)c1ccc([N+](=O)[O-])cc1` gave a TGI above 100 µM.

`CC1CCC[P+](Cc2ccccc2)(c2ccccc2)CC1` (stereo not drawn) showed a TGI above 100 µM.

For a further assay, the system named is LXFL 529 NSCLC. Briefly: NCI tumour cell line growth inhibition, 48 h.
On to `COc1ccc(CNc2nc3ccc(C(F)(F)F)cc3nc2-c2ccccc2)cc1OC`, for which the TGI was above 100 µM.

`O=C(O/N=C1/CCC/C1=C\c1ccccc1)c1ccc([N+](=O)[O-])cc1` came in with a TGI above 100 µM.

`CC1CCC[P+](Cc2ccccc2)(c2ccccc2)CC1` (stereo not drawn) registered a TGI above 100 µM.

A further assay relates to M14 melanoma. As to the kind of experiment: NCI tumour cell line growth inhibition, 48 h.
Regarding `O=C(O/N=C1/CCC/C1=C\c1ccccc1)c1ccc([N+](=O)[O-])cc1`, the TGI was above 100 µM.

In turn, `CC1CCC[P+](Cc2ccccc2)(c2ccccc2)CC1` (stereo not drawn) returned a TGI above 100 µM.

The subject of another assay is M19-MEL melanoma. As to the kind of experiment: NCI tumour cell line growth inhibition, 48 h.
`COc1ccc(CNc2nc3ccc(C(F)(F)F)cc3nc2-c2ccccc2)cc1OC` came in with a TGI above 100 µM.

In turn, `O=C(O/N=C1/CCC/C1=C\c1ccccc1)c1ccc([N+](=O)[O-])cc1` had a TGI above 100 µM.

For the compound `C=C1CC(OC)(C(O)C(=O)N[C@H]2OCO[C@H]3C2O[C@H](C[C@@H](COC)OC)C(C)(C)C3OC)O[C@H](C)[C@@H]1C` (stereo partly drawn), the TGI was below 0.00482 µM.

Take `CC1CCC[P+](Cc2ccccc2)(c2ccccc2)CC1` (stereo not drawn): the TGI was above 100 µM.

The next assay relates to MALME-3M melanoma. As to the kind of experiment: NCI tumour cell line growth inhibition, 48 h.
Consider `COc1ccc(CNc2nc3ccc(C(F)(F)F)cc3nc2-c2ccccc2)cc1OC`, for which the TGI is above 100 µM.

For `O=C(O/N=C1/CCC/C1=C\c1ccccc1)c1ccc([N+](=O)[O-])cc1`, the TGI is above 100 µM.

Consider `CC1CCC[P+](Cc2ccccc2)(c2ccccc2)CC1` (stereo not drawn), for which the TGI came to 42.6 µM.

In another assay the test system is MCF7 breast. Briefly: NCI tumour cell line growth inhibition, 48 h.
In turn, `C=C1CC(OC)(C(O)C(=O)N[C@H]2OCO[C@H]3C2O[C@H](C[C@@H](COC)OC)C(C)(C)C3OC)O[C@H](C)[C@@H]1C` (stereo partly drawn) returned a TGI below 0.00482 µM.

Another assay deals with MOLT-4 leukemia. As to the kind of experiment: NCI tumour cell line growth inhibition, 48 h.
For the compound `COc1ccc(CNc2nc3ccc(C(F)(F)F)cc3nc2-c2ccccc2)cc1OC`, the TGI is above 100 µM.

`O=C(O/N=C1/CCC/C1=C\c1ccccc1)c1ccc([N+](=O)[O-])cc1` gave a TGI above 100 µM.

As for `CC1CCC[P+](Cc2ccccc2)(c2ccccc2)CC1` (stereo not drawn), the TGI is above 100 µM.

A further assay deals with NCI-H226 lung. As to the kind of experiment: NCI tumour cell line growth inhibition, 48 h.
Take `COc1ccc(CNc2nc3ccc(C(F)(F)F)cc3nc2-c2ccccc2)cc1OC`: the TGI was above 100 µM.

In the case of `O=C(O/N=C1/CCC/C1=C\c1ccccc1)c1ccc([N+](=O)[O-])cc1`, the TGI is above 100 µM.

Consider `C=C1CC(OC)(C(O)C(=O)N[C@H]2OCO[C@H]3C2O[C@H](C[C@@H](COC)OC)C(C)(C)C3OC)O[C@H](C)[C@@H]1C` (stereo partly drawn), for which the TGI was below 0.00482 µM.

A further assay has as its system NCI-H23 lung. As to the kind of experiment: NCI tumour cell line growth inhibition, 48 h.
As to `COc1ccc(CNc2nc3ccc(C(F)(F)F)cc3nc2-c2ccccc2)cc1OC`, the TGI is above 100 µM.

`O=C(O/N=C1/CCC/C1=C\c1ccccc1)c1ccc([N+](=O)[O-])cc1`: the TGI is above 100 µM.
